Converted amounts (≈) assume the structure as drawn. Like-named read-outs stand apart in the source and are kept apart here.
Experiments:
[1] = system: S. pneumoniae; assay: Susceptibility testing (MIC, modified NCCLS method); type: cell-based, Streptococcus pneumoniae; conditions: S. pneumoniae (3)
Description: (§1) The NCCLS (National Committee for Clinical Laboratory Standards) method to determine MIC's of antimicrobial compounds was modified for high-throughput screening. All stocks of tested compounds were prepared in either water or in dimethylsulfoxide (DMSO), depending on the solubility. […] Briefly 20 2-fold serial dilutions of testing compounds from the highest concentration were made in a 384-well microtiter plate. Each well was inoculated with testing bacteria in broth to a final concentration of approximately 1-1.5×10^6 cells/ml. Bacterial growth was determined by the increase of optical density at 600 nm using a microplate reader (Tecan SpectraFluor Plus).

[2] = system: E. faecalis; assay: as above; type: cell-based, Enterococcus faecalis; conditions: E. faecalis (7)
Summary of the method: (§2)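 Growth inhibition was scored by optical density increase at 600 nm. Bacteria in broth were added at roughly 1-1.5×10^6 cells/ml to 20 twofold serial dilutions of compound, prepared from water or DMSO stocks. The NCCLS MIC procedure was modified for high throughput.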

[3] = system: S. epidermidis; assay: as above; type: cell-based, Staphylococcus epidermidis
Description: as §1

[4] = system: K. pneumoniae; assay: as above; type: cell-based, Klebsiella pneumoniae; conditions: K. pneumoniae (5)
Summary of the method: as §2

[5] = system: Staphylococcus aureus; assay: as above; type: cell-based; conditions: for MIC: Staphylococcus aureus
Summary of the method: as §2

[6] = type: physicochemical; conditions: 5 h, pH 7.2
Description: Assays were conducted at 37° C. in 100 mM potassium phosphate buffer pH 7.2 with 1 mM EDTA and 0.5 μg/ml TEM-1 β-lactamase. Compound (9) catalysis was determined via fixed time incubations followed by acid quenching. Product formation (triclosan) was determined by integrated peak area of A260 nm following HPLC separation. Hydrolysis product (triclosan) was separated from Compound (9) by use of an HP1100 series HPLC equipped with an Alltech Adsorbosphere HS(C18)5u 150 mm×4.6 mm column. The mobile phase was isocratic containing 55% acetonitrile and 0.1% TFA producing retention times of 20.4 minutes and 24.1 minutes for triclosan and Compound (9), respectively. Quantitation of triclosan was based on the A260 integrated peak area as compared to triclosan standards.
A typical TEM-1 β-lactamase assay is conducted at 37° C. in 1.4 ml of 100 mM potassium phosphate pH 7.2, 1 mM; ethylenediamine tetraacetic acid (EDTA) and 25 nM TEM-1 β-lactamase. A test compound is assayed at several concentrations, for example at 5 and 20 μM. At timed intervals oft=0, 15, 30, 60 and 120 minutes, 200 μl of the assay mixture is withdrawn and added to 8 μl of 10% trifluoracetic acid (TFA) in an high pressure liquid chromatography.(HPLC) microvial. Substrates and products are separated and quantitated via HPLC (described below). […]

[7] = system: E. coli C(Tem4O-15); assay: Inhibition of bacterial growth (IC50, OD600); type: cell-based; conditions: for IC50: Escherichia coli
Description: (§3) Compounds of the invention were tested for their ability to inhibit the growth of β-lactam sensitive and resistant bacteria by contacting samples of such cells with various dilutions of the compositions, incubating the cells at 37° C. in the presence of these compositions and then measuring the number of viable cells present in each sample.
(§4) Two compounds of the invention were tested, Compound (9) and Compound (1l). Incubation of bacterial cells was performed for two time periods, 10 hours and 20 hours. Four E. coli strains were used for the test. These strains were all derived from the strain NovaBlue (NovaGen Inc., Madison, Wis.). E. coli N is a normal, β-lactam sensitive strain. E coli R(Tem1) is a β-lactam resistant strain with a β-lactamase gene on a plasmid. E. coli C(Tem4O-15) is a β-lactam resistant strain with a β-lactam inhibitor resistant β-lactamase gene, and E. coli C(Tem3 1-27) is β-lactam resistant strain with an alternative β-lactam inhibitor resistant β-lactamase gene.
(§5) The various E. coli strains were each treated with dilutions of the compounds of the invention. […] The number of viable cells at each time point was determined by measuring the OD600 of each cell sample.
(§6) After measuring the number of viable cells present, the IC50 for each sample was determined. […] In addition, both compounds were effective at inhibiting the growth of both antibiotic sensitive and resistant bacterial cells.

[8] = system: E. coli C(Tem3 1-27); assay: Inhibition of bacterial growth (IC50, OD600); type: cell-based; conditions: for IC50: Escherichia coli
Description: as §3, §4, §5, §6

[9] = system: E coli R(Tem1); assay: Inhibition of bacterial growth (IC50, OD600); type: cell-based; conditions: for IC50 ratio N/R: N versus R (Tem1); for IC50: Escherichia coli
Description: as §3, §4, §5, §6

[10] = system: E. coli N; assay: Inhibition of bacterial growth (IC50, OD600); type: cell-based; conditions: Escherichia coli
Description: as §3, §4, §5, §6

[11] = system: E. coli N; assay: Susceptibility testing (MIC, modified NCCLS method); type: cell-based, Escherichia coli; conditions: Escherichia coli, E. coli, BLA neg.
Summary of the method: as §2

[12] = system: E. coli/TEM-1; assay: as above; type: cell-based, Escherichia coli; conditions: for MIC: Escherichia coli
Summary of the method: as §2

O=C(Cc1cccs1)N[C@@H]1C(=O)N2C(C(=O)O)=C(COc3cc(Cl)ccc3Oc3ccc(Cl)cc3Cl)CS[C@H]12 [Compound 9, 3-(2-(2,4-Dichlorophenoxy)-5-chlorophenoxy)methyl-7-(2-thienylacetamido)-3-cephem-4-carboxylic acid]
MIC range [1]: 60 to 500 ng/mL
MIC ([1]; Streptococcus pneumoniae, read-out: GM* MIC (geometric mean)): 122 ng/mL (≈ 195 nM)
MIC range [2]: 8000 to 16000 ng/mL
MIC ([2]; Enterococcus faecalis, read-out: GM* MIC (geometric mean)): 8000 ng/mL (≈ 12800 nM)
MIC range ([3]; S. epidermidis (5)): 0.015 to 500 ng/mL
GM* MIC (geometric mean) ([3]; S. epidermidis (5), listed as Comp. (9)): <4 ng/mL
fold more active than vancomycin ([3]; S. epidermidis, geometric mean MIC): 435 fold
MIC ([3]; Staphylococcus epidermidis, S. epidermidis (5), read-out: GM* MIC (geometric mean)): 4 ng/mL (≈ 6.39 nM)
MIC range [4]: 980 to 3910 ng/mL
MIC ([4]; Klebsiella pneumoniae, read-out: GM* MIC (geometric mean)): 1960 ng/mL (≈ 3130 nM)
fold greater potency than vancomycin ([5]; MRSA and vancomycin-resistant S. aureus): at least 85 fold
Geometric mean of MIC ([5]; S. aureus β-lactamase negative (2), listed as Comp. 9): 1410 ng/mL
MIC ([5]; ATCC11632, ATCC 11632, methicillin-sensitive, β-lactamase Neg./Pos., read-out: MIC): 0.015 ng/mL (≈ 0.024 nM)
MIC ([5]; ATCC13301, ATCC 13301, methicillin-sensitive, β-lactamase Positive, read-out: MIC): 0.015 ng/mL (≈ 0.024 nM)
MIC ([5]; ATCC14154, ATCC 14154, methicillin-sensitive, β-lactamase Positive, read-out: MIC): 0.015 ng/mL (≈ 0.024 nM)
MIC ([5]; ATCC33591, ATCC 33591, methicillin-resistant, β-lactamase Positive, read-out: MIC): 0.03 ng/mL (≈ 0.0479 nM)
MIC ([5]; ATCC33592, ATCC 33592, methicillin-sensitive, β-lactamase Positive, read-out: MIC): 0.015 ng/mL (≈ 0.024 nM)
MIC ([5]; ATCC33593, ATCC 33593, methicillin-resistant, β-lactamase Positive, read-out: MIC): 0.015 ng/mL (≈ 0.024 nM)
MIC ([5]; ATCC33594, ATCC 33594, methicillin-sensitive, β-lactamase Positive, read-out: MIC): 0.015 ng/mL (≈ 0.024 nM)
MIC ([5]; ATCC43300, ATCC 43300, methicillin-sensitive, β-lactamase Neg./Pos., read-out: MIC): 0.06 ng/mL (≈ 0.0959 nM)
MIC ([5]; ATCC700260, ATCC 700260, methicillin-sensitive, β-lactamase Positive, read-out: MIC): 0.015 ng/mL (≈ 0.024 nM)
MIC ([5]; ATCC700698, ATCC 700698, methicillin-resistant, β-lactamase Negative, read-out: MIC): 1000 ng/mL (≈ 1600 nM)
MIC ([5]; ATCC700699, ATCC 700699, methicillin-resistant, β-lactamase Negative, read-out: MIC): 2000 ng/mL (≈ 3200 nM)
MIC ([5]; ATCC700787, ATCC 700787, methicillin-resistant, β-lactamase Positive, read-out: MIC): 1000 ng/mL (≈ 1600 nM)
MIC ([5]; ATCC700788, ATCC 700788, methicillin-resistant, β-lactamase Positive, read-out: MIC): 250 ng/mL (≈ 399 nM)
MIC ([5]; ATCC700789, ATCC 700789, methicillin-resistant, β-lactamase Positive, read-out: MIC): 31 ng/mL (≈ 49.5 nM)
MIC ([5]; MRSA, MRSA tested (7), read-out: Geometric mean of MIC): 25 ng/mL (≈ 39.9 nM)
MIC ([5]; MSSA, MSSA tested (7), read-out: Geometric mean of MIC): 0.018 ng/mL (≈ 0.0288 nM)
MIC ([5]; S. aureus (14), read-out: Geometric mean of MIC): 1 ng/mL (≈ 1.6 nM)
MIC ([5]; S. aureus β-lactamase negative (2), read-out: Geometric mean of MIC): 1570 ng/mL (≈ 2510 nM)
MIC ([5]; S. aureus β-lactamase positive (12), read-out: Geometric mean of MIC): 0.19 ng/mL (≈ 0.304 nM)
stability in TEM-1 blank experiment [6]: stable up to 5 hours
IC50 ratio (C/R or N/C) ([7]; 10 hours, line of C (Tem40-15)): C/R = 117x
IC50 ratio (given C/R or N/R) ([7]; 20 hours, line of C (Tem40-15)): C/R = 2.3x
IC50 ([7]; 10 h, read-out: IC50 10 hours): 1.62 nM
IC50 ([7]; 20 h, read-out: IC50 20 hours): 18.3 nM
IC50 ratio (C/R or N/C) ([8]; 10 hours, line of C (Tem31-27)): C/R = 90x
IC50 ratio (given C/R or N/R) ([8]; 20 hours, line of C (Tem31-27)): C/R = 2x
IC50 ([8]; 10 h, read-out: IC50 10 hours): 2.09 nM
IC50 ([8]; 20 h, read-out: IC50 20 hours): 21 nM
IC50 ratio N/R ([9]; 10 hours): N/R = 1969x
IC50 ratio N/R ([9]; 20 hours): N/R = 10x
IC50 ([9]; 10 h, read-out: IC50 10 hours, Cell R (Tem1), 10 hours): 0.096 nM
IC50 ([9]; 20 h, read-out: IC50 20 hours, Cell R (Tem1), 20 hours): 4.13 nM
IC50 ([10]; 10 h, read-out: IC50 10 hours, Cell N, 10 hours, 37° C.): 189 nM
IC50 ([10]; 20 h, read-out: IC50 20 hours, Cell N, 20 hours): 42.4 nM
MIC ([11]; read-out: MIC, Comp. (9) plus 4 μg/mL CLA, plus 4 μg/mL lithium clavulanate): 250 ng/mL
MIC ([11]; drug alone, read-out: MIC): 250 ng/mL (≈ 399 nM)
MIC ([11]; plus 8 μg/mL sulbactam, read-out: MIC, Comp. (9) plus 8 μg/mL SBT): 130 ng/mL
MIC [12]: 2 ng/mL (≈ 3.2 nM)
MIC ([12]; read-out: MIC, Comp. (9) plus 8 μg/mL SBT): 16 ng/mL
fold more potent against E. coli/TEM-1 compared with E. coli N ([12]; MIC ratio, Table 4): 128 fold
